Experiments:
Assay in all cases: relative viability (nuclei count vs DMSO), 5 days (fraction); higher = more cells survive
[1] = compound: CC(C)=CC[C@@H](O)C1=CC(=O)c2c(O)ccc(O)c2C1=O [Shikonin] + C[C@]1(O)C[C@@H](c2nc(-c3ccc4ccc(-c5ccccc5)nc4c3)c3c(N)nccn32)C1 [Linsitinib] (partner 1 µM)
Method in brief: (§1)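 Values are medians from duplicate plates. Each reflects relative viability, defined as the nuclei count of treated wells over that of vehicle wells. Lung cancer cell lines in 1536-well plates were pin-tool dosed one day after seeding with one drug alone or with a fixed anchor-drug dose plus five library-drug doses (not always all listed) in √10 steps, then fixed, stained and imaged at 4× after 5 days.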

[2] = compound: CC(C)=CC[C@@H](O)C1=CC(=O)c2c(O)ccc(O)c2C1=O [Shikonin] + Cc1cc(Nc2cc(N3CCN(C)CC3)nc(Sc3ccc(NC(=O)C4CC4)cc3)n2)n[nH]1 [Tozasertib] (partner 0.1 µM)
Method in brief: as §1

[3] = compound: CC(C)N(CCCNC(=O)Nc1ccc(C(C)(C)C)cc1)C[C@H]1O[C@@H](n2ccc3c(N)ncnc32)[C@H](O)[C@@H]1O + COc1cc2c(Oc3ccc(NC(=O)C4(C(=O)Nc5ccc(F)cc5)CC4)cc3F)ccnc2cc1OCCCN1CCOCC1 [Foretinib] (partner 0.25 µM)
Method in brief: as §1

[4] = compound: CC(C)N(CCCNC(=O)Nc1ccc(C(C)(C)C)cc1)C[C@H]1O[C@@H](n2ccc3c(N)ncnc32)[C@H](O)[C@@H]1O + Cc1nc(NC(=O)N2CCC[C@H]2C(N)=O)sc1-c1ccnc(C(C)(C)C(F)(F)F)c1 [Alpelisib] (partner 2 µM)
Method in brief: as §1

Question: Which results are given for UMC-11?
Answer: relative viability ([1]; first compound 0.01 µM): 1.02; relative viability ([1]; first compound 0.1 µM): 1.19; relative viability ([1]; first compound 0.3162 µM): 1.1; relative viability ([1]; first compound 1 µM): 1.13; relative viability ([2]; first compound 0.01 µM): 0.185; relative viability ([2]; first compound 0.1 µM): 0.213; relative viability ([2]; first compound 0.3162 µM): 0.203; relative viability ([2]; first compound 1 µM): 0.169; relative viability ([3]; first compound 0.08 µM): 0.979; relative viability ([3]; first compound 0.253 µM): 0.984; relative viability ([3]; first compound 0.8 µM): 1.06; relative viability ([3]; first compound 2.53 µM): 0.975; relative viability ([3]; first compound 8 µM): 1.02; relative viability ([4]; first compound 0.08 µM): 0.957; relative viability ([4]; first compound 0.253 µM): 0.891; relative viability ([4]; first compound 0.8 µM): 1.09; relative viability ([4]; first compound 2.53 µM): 0.958; relative viability ([4]; first compound 8 µM): 0.964

Source: the supplement of paper PMC10307832
